Counter-ions that a name gives are not always drawn.
Columns and labels:
[1] = system: sensitive w/t form of EPSPS (endogenous); assay: EPSPS assay of plant extracts with or without glyphosate, sensitive enzyme; format: biochemical, corn; details: 0.1 mM glyphosate, 0.1 mM 14C-PEP, 0.75 mM shikimate-3-Pi
Description: (§1) Assays are carried out generally according to the radiochemical method of Padgette et al 1987 (Archives of Biochemistry and Biophysics, 258(2) 564-573) with K+ions as the major species of cationic counterion. Assays in a total volume of 50 μl, in 50 mM Hepes(KOH) pH 7.0 at 25° C., contain purified enzyme or plant extract (see below) diluted appropriately in Hepes pH 7.0 containing 10% glycerol, and 5 mM DTT, ^14C PEP either as variable substrate(for kinetic determinations) or fixed at 100 or 250 μM and shikimate 3 Phosphate (K+salt) at 2 or 0.75 mM as indicated. Optionally, for assays of crude plant extracts, assays also contain 5 mM KF and/or 0.1 mM ammonium molybdate. Assays are started with the addition of ^14C phosphoenolpyruvate (cyclohexylammonium+salt) and stopped after 2-10 minutes (2 minutes is preferable) with the addition of 50μl of a solution of 1 part 1M acetic acid and 9 parts ethanol. […] Apparent Km and Vmax values are determined by least squares fit to a hyperbola with simple weighting using the Grafit 3.09b from Erithacus Software Ltd. Km values are generally ascertained using 8-9 concentrations of variable substrate ranging from Km/2-10 Km and triplicate points. […]

[2] = system: resistant form of EPSPS; assay: EPSPS assay of plant extracts with or without glyphosate, resistant enzyme; format: biochemical, rice; details: 0.1 mM glyphosate, 0.1 mM 14C-PEP, 0.75 mM shikimate-3-Pi
Description: as §1

[3] = biological target: T1, mutant form of rice EPSPS (Oryza sativa, UniProt A0A0N9WU17, P177S/T173I); assay: EPSPS enzyme assay (radiochemical) of purified mutant rice EPSPS; format: biochemical
T1 sequence (A0A0N9WU17 72-515 T173I/P177S): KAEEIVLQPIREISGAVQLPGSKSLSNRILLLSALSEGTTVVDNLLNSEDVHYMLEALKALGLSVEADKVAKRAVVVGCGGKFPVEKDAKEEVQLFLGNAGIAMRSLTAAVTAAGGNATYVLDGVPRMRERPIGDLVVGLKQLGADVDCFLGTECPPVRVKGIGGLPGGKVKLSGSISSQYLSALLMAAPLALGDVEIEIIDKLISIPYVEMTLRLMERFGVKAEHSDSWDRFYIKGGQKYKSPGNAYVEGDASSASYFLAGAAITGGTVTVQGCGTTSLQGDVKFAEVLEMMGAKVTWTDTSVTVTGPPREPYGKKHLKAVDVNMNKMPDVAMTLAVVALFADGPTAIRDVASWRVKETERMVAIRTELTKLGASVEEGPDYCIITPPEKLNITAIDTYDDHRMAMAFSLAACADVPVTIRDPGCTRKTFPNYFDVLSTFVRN
Description: The resultant products are gel purified and placed into a tube in eqi-molar concentrations to serve as a template for another round of PCRs with the rice 5′ and 3′ oligos. The resultant products are cloned into pCRBlunt II using Invitrogens Zero Blunt TOPO kit. It is confirmed that the DNA sequence of the insert and its predicted open reading frame correspond to that of the predicted mature chloroplastic rice EPSPS protein (with the exception of the presence of an initiating Met) and also that the desired changes (the specific mutation of T to I and P to S at specific positions in the EPSPS sequence) are encoded . The thus cloned and verified rice epsps sequence is excised using Nde 1 and Xho 1 and the purified fragment cloned into pET24a (Novagen) digested similarly. The recombinant clones are introduced into BL21 (DE3), a codon optimised RP strain of E. coli supplied by Strategene. The EPSPS protein is expressed in this strain following addition of 1 mM IPTG to the fermenter medium (LB supplemented with 100 ug/ml Kanamycin). […]

Row | Structure (SMILES) | inhibition of sensitive w/t (endogenous) EPSPS [1] [%] | inhibition of resistant (tolerant) EPSPS [2] [%] | inhibition of resistant (tolerant) EPSPS ([2]; listed as glyphosate) [%] | IC50 [3] [µM] | Ki [3] [µM]
1 | O=C(O)CNCP(=O)(O)O [N-(phosphonomethyl)glycine, N-phosphonomethylglycine] | > 98 | < 8.5 | ~8 |  | 
2 | O=C(O)CNCP(=O)(O)O [potassium salt of glyphosate] |  |  |  | ~600 | ~200

Reference: patent publication US20030049814A1, “Herbicide resistant plants” (priority 1999, published 2003)
